Reference: US9394282B2, “Pyrazole carboxamides as Janus kinase inhibitors” (Merck Sharp & Dohme Corp., priority 2011, dated 2016)
pIC50: −log10 of the molar value.

Each compound was assayed against JAK2 (Homo sapiens (Human), UniProt O60674) (assay: Jak biochemical HTRF assay, JAK2). Conditions: recombinant purified GST-tagged catalytic domain; HTRF format; [ATP] 8.5 μM.
Source text: Jak Biochemical HTRF Assay Protocol
Subsequent reagent additions employed an Agilent Bravo.

Chain of JAK2 (O60674 849-1124): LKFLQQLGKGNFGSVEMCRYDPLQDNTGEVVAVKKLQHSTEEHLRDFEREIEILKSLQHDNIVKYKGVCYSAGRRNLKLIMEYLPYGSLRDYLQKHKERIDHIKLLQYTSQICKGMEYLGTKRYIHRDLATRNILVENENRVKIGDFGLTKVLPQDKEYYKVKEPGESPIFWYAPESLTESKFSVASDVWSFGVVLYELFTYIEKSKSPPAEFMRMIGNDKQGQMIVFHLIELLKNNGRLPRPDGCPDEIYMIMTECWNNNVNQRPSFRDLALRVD

Point of comparison: `N#C[C@@H]1CN(Cc2cscn2)CC[C@H]1n1cc(C(N)=O)c(Nc2ccc(F)cc2)n1` (racemic) [Example 6-27, 1-[(3R,4R and 3S,4S)-3-cyano-1-(1,3-thiazol-4-ylmethyl)piperidin-4-yl]-3-[(4-fluorophenyl)amino]-1H-pyrazole-4-carboxamide], pIC50 7.43. Against it:
- CC(C)COC(=O)N1CC[C@@H](n2cc(C(N)=O)c(Nc3ccc(F)cc3)n2)[C@H](C#N)C1 (racemic) [Example 5-10, 2-methylpropyl (3R,4R and 3S,4S)-4-{4-carbamoyl-3-[(4-fluorophenyl)amino]-1H-pyrazol-1-yl}-3-cyanopiperidine-1-carboxylate] — 1.31 log units lower, 6.12
- N#C[C@@H]1CN(C(=O)OCc2ccccc2)CC[C@H]1n1cc(C(N)=O)c(Nc2ccc(F)cc2)n1 (racemic) [Example 5-12, benzyl (3R,4R and 3S,4S)-4-{4-carbamoyl-3-[(4-fluorophenyl)amino]-1H-pyrazol-1-yl}-3-cyanopiperidine-1-carboxylate] — 1.00 log units lower, 6.43
- CN1CCN(CCOC(=O)N2CC[C@@H](n3cc(C(N)=O)c(Nc4ccc(F)cc4)n3)[C@H](C#N)C2)CC1 (racemic) [Example 5-24, 2-(4-methylpiperazin-1-yl)ethyl (3R,4R and 3S,4S)-4-{4-carbamoyl-3-[(4-fluorophenyl)amino]-1H-pyrazol-1-yl}-3-cyanopiperidine-1-carboxylate] — 1.46 log units lower, 5.97
- CC1(COC(=O)N2CC[C@@H](n3cc(C(N)=O)c(Nc4ccc(F)cc4)n3)[C@H](C#N)C2)COC1 (racemic) [Example 5-33, (3-methyloxetan-3-yl)methyl (3R,4R and 3S,4S)-4-{4-carbamoyl-3-[(4-fluorophenyl)amino]-1H-pyrazol-1-yl}-3-cyanopiperidine-1-carboxylate] — 1.05 log units lower, 6.38
- C#CCCOC(=O)N1CC[C@@H](n2cc(C(N)=O)c(Nc3ccc(F)cc3)n2)[C@H](C#N)C1 (racemic) [Example 5-34, but-3-yn-1-yl (3R,4R and 3S,4S)-4-{4-carbamoyl-3-[(4-fluorophenyl)amino]-1H-pyrazol-1-yl}-3-cyanopiperidine-1-carboxylate] — 0.62 log units lower, 6.81
- C#CCCOC(=O)N1CC[C@H](n2cc(C(N)=O)c(Nc3ccc(F)cc3)n2)[C@H](C#N)C1 (racemic) [Example 5-40, but-3-yn-1-yl (3R,4S and 3S,4R)-4-{4-carbamoyl-3-[(4-fluorophenyl)amino]-1H-pyrazol-1-yl}-3-cyanopiperidine-1-carboxylate] — 1.57 log units lower, 5.86
- CC1(COC(=O)N2CC[C@H](n3cc(C(N)=O)c(Nc4ccc(F)cc4)n3)[C@H](C#N)C2)COC1 (racemic) [Example 5-45, (3-methyloxetan-3-yl)methyl (3R,4S and 3S,4R)-4-{4-carbamoyl-3-[(4-fluorophenyl)amino]-1H-pyrazol-1-yl}-3-cyanopiperidine-1-carboxylate] — lower, < 5.83
- N#C[C@@H]1CN(C(=O)OCc2ccccc2)CC[C@@H]1n1cc(C(N)=O)c(Nc2ccc(F)cc2)n1 (racemic) [Example 5-52, benzyl (3R,4S and 3S,4R)-4-{4-carbamoyl-3-[(4-fluorophenyl)amino]-1H-pyrazol-1-yl}-3-cyanopiperidine-1-carboxylate] — lower, < 5.83
- CC(C)COC(=O)N1CC[C@H](n2cc(C(N)=O)c(Nc3ccc(F)cc3)n2)[C@H](C#N)C1 (racemic) [Example 5-56, 2-methylpropyl (3R,4S and 3S,4R)-4-{4-carbamoyl-3-[(4-fluorophenyl)amino]-1H-pyrazol-1-yl}-3-cyanopiperidine-1-carboxylate] — lower, < 5.83
- N#C[C@@H]1CN(C(=O)OC2CCCCC2)CC[C@@H]1n1cc(C(N)=O)c(Nc2ccc(F)cc2)n1 (racemic) [Example 5-61, cyclohexyl (3R,4S and 3S,4R)-4-{4-carbamoyl-3-[(4-fluorophenyl)amino]-1H-pyrazol-1-yl}-3-cyanopiperidine-1-carboxylate] — lower, < 5.83
- CC(C)(C#N)COC(=O)N1CC[C@@H](C#N)C(n2cc(C(N)=O)c(Nc3ccc(F)cc3)n2)C1 (mixture of isomers) [Example 5-69, 2-Cyano-2-methylpropyl (3S,4R and 3R,4S)-3-{4-carbamoyl-3-[(4-fluorophenyl)amino]-1H-pyrazol-1-yl}-4-cyanopiperidine-1-carboxylate] — within 0.2 log units, 7.39
- N#C[C@@H]1CCN(C(=O)OCCF)CC1n1cc(C(N)=O)c(Nc2ccc(F)cc2)n1 (mixture of isomers) [Example 5-79, 2-fluoroethyl (3S,4R and 3R,4S)-3-{4-carbamoyl-3-[(4-fluorophenyl)amino]-1H-pyrazol-1-yl}-4-cyanopiperidine-1-carboxylate] — within 0.2 log units, 7.25
- COCCOC(=O)N1CC[C@@H](C#N)C(n2cc(C(N)=O)c(Nc3ccc(F)cc3)n2)C1 (mixture of isomers) [Example 5-83, 2-methoxyethyl (3S,4R and 3R,4S)-3-{4-carbamoyl-3-[(4-fluorophenyl)amino]-1H-pyrazol-1-yl}-4-cyanopiperidine-1-carboxylate] — 0.51 log units lower, 6.92
- CC1(COC(=O)N2CC[C@@H](C#N)C(n3cc(C(N)=O)c(Nc4ccc(F)cc4)n3)C2)COC1 (mixture of isomers) [Example 5-90, (3-methyloxetan-3-yl)methyl (3S,4R and 3R,4S)-3-{4-carbamoyl-3-[(4-fluorophenyl)amino]-1H-pyrazol-1-yl}-4-cyanopiperidine-1-carboxylate] — 0.41 log units lower, 7.02
- N#C[C@@H]1CCN(Cc2cc(F)ccn2)C[C@H]1n1cc(C(N)=O)c(Nc2ccc(F)cc2)n1 (racemic) [Example 6-7, 1-{(3S,4R and 3R,4S)-4-cyano-1-[(4-fluoropyridin-2-yl)methyl]piperidin-3-yl}-3-[(4-fluorophenyl)amino]-1H-pyrazole-4-carboxamide] — within 0.2 log units, 7.33
- N#C[C@@H]1CCN(CC2CCC2)C[C@H]1n1cc(C(N)=O)c(Nc2ccc(F)cc2)n1 (racemic) [Example 6-12, 1-[(3S,4R and 3R,4S)-4-cyano-1-(cyclobutylmethyl)piperidin-3-yl]-3-[(4-fluorophenyl)amino]-1H-pyrazole-4-carboxamide] — within 0.2 log units, 7.48
- CCn1ccnc1CN1CC[C@@H](C#N)[C@H](n2cc(C(N)=O)c(Nc3ccc(F)cc3)n2)C1 (racemic) [Example 6-19, 1-{(3S,4R and 3R,4S)-4-cyano-1-[(1-ethyl-1H-imidazol-2-yl)methyl]piperidin-3-yl}-3-[(4-fluorophenyl)amino]-1H-pyrazole-4-carboxamide] — 0.53 log units higher, 7.96
- N#C[C@@H]1CN(Cc2ncco2)CC[C@H]1n1cc(C(N)=O)c(Nc2ccc(F)cc2)n1 (racemic) [Example 6-29, 1-[(3R,4R and 3S,4S)-3-cyano-1-(1,3-oxazol-2-ylmethyl)piperidin-4-yl]-3-[(4-fluorophenyl)amino]-1H-pyrazole-4-carboxamide] — within 0.2 log units, 7.33
- N#C[C@H]1CS(=O)(=O)CC1n1cc(C(N)=O)c(Nc2ccc(F)cc2)n1 (mixture of isomers) [Example 8-5, 1-((3S,4S and 3R,4R)-4-cyano-1,1-dioxidotetrahydrothiophen-3-yl)-3-((4-fluorophenyl)amino)-1H-pyrazole-4-carboxamide] — within 0.2 log units, 7.49
- N#C[C@@H]1CS(=O)(=O)CC1n1cc(C(N)=O)c(Nc2ccc(F)cc2)n1 (mixture of isomers) [Example 8-6, 1-((3S,4R and 3R,4S)-4-cyano-1,1-dioxidotetrahydrothiophen-3-yl)-3-((4-fluorophenyl)amino)-1H-pyrazole-4-carboxamide] — within 0.2 log units, 7.62
- N#C[C@@H]1CS(=O)(=O)CC1n1cc(C(N)=O)c(Nc2ccc(S(=O)(=O)C(F)(F)F)cc2)n1 (mixture of isomers) [Example 8-7, 1-((3S,4R and 3R,4S)-4-cyano-1,1-dioxidotetrahydrothiophen-3-yl)-3-((4-((trifluoromethyl)sulfonyl)phenyl)amino)-1H-pyrazole-4-carboxamide] — 0.39 log units higher, 7.82
- N#C[C@H]1CCOC[C@@H]1n1cc(C(N)=O)c(Nc2ccc(Cl)nc2)n1 (single isomer, unassigned) [Example 9-27, 3-[(6-chloropyridin-3-yl)amino]-1-[(3R,4S or 3S,4R)-4-cyanotetrahydro-2H-pyran-3-yl]-1H-pyrazole-4-carboxamide] — 0.56 log units lower, 6.87
- N#C[C@@H]1CCOC[C@H]1n1cc(C(N)=O)c(Nc2ccc(Cl)nc2)n1 (single isomer, unassigned) [Example 9-28, 3-[(6-chloropyridin-3-yl)amino]-1-[(3S,4R or 3R,4S)-4-cyanotetrahydro-2H-pyran-3-yl]-1H-pyrazole-4-carboxamide] — 0.97 log units higher, 8.40
- N#C[C@H]1CCOC[C@@H]1n1cc(C(N)=O)c(Nc2ccc(C(F)F)nc2)n1 (single isomer, unassigned) [Example 9-32, 1-[(3R,4S or 3S,4R)-4-cyanotetrahydro-2H-pyran-3-yl]-3-{[6-(difluoromethyl)pyridin-3-yl]amino}-1H-pyrazole-4-carboxamide] — 0.56 log units lower, 6.87
- N#C[C@@H]1CCOC[C@H]1n1cc(C(N)=O)c(Nc2ccc(C(F)F)nc2)n1 (single isomer, unassigned) [Example 9-33, 1-[(3S,4R or 3R,4S)-4-cyanotetrahydro-2H-pyran-3-yl]-3-{[6-(difluoromethyl)pyridin-3-yl]amino}-1H-pyrazole-4-carboxamide] — 1.09 log units higher, 8.52
- CN(C)C(=O)c1ccc(Nc2nn([C@H]3COCC[C@@H]3C#N)cc2C(N)=O)cc1 (single isomer, unassigned) [Example 9-34, 1-[(3R,4S or 3S,4R)-4-cyanotetrahydro-2H-pyran-3-yl]-3-{[4-(dimethylcarbamoyl)phenyl]amino}-1H-pyrazole-4-carboxamide] — 2.27 log units higher, 9.70

Same assay, conditions: recombinant purified GST-tagged catalytic domain; HTRF format; [ATP] […]

Point of comparison: `N#C[C@@H]1CS(=O)(=O)C[C@H]1n1cc(C(N)=O)c(Nc2ccc(F)cc2)n1` (single isomer, unassigned) [Example 12-2, 1-((3S,4R or 3R,4S)-4-Cyano-1,1-dioxidotetrahydrothiophen-3-yl)-3-((4-fluorophenyl)amino)-1H-pyrazole-4-carboxamide], pIC50 7.80. Against it:
- N#C[C@@H]1CS(=O)(=O)C[C@H]1n1cc(C(N)=O)c(Nc2ccc(F)cc2)n1 (single isomer, unassigned) [Example 12-1, 1-((3S,4R or 3R,4S)-4-Cyano-1,1-dioxidotetrahydrothiophen-3-yl)-3-((4-fluorophenyl)amino)-1H-pyrazole-4-carboxamide] — lower, < 5.83
